# Reference: patent US9650395B2, “Antibacterial compounds and methods for use” (PTC Therapeutics, Inc., priority 2011, dated 2017)
# Structures can show the parent of a compound that is named as a salt. Where two headings read alike, the source gives them in different places.
# Experiments:
# [1] = test system: super sensitive Gram-negative Escherichia coli (E. coli) BAS849; experiment: Antibacterial activity, microbroth dilution MIC, E. coli BAS849; format: cell-based; conditions: Escherichia coli, read-out: MIC, BAS849
# [2] = test system: control Gram-negative E. coli 25922 strain; experiment: Antibacterial activity, microbroth dilution MIC, E. coli 25922; format: cell-based, Escherichia coli; conditions: Escherichia coli; E. coli 25922, microbroth dilution; read-out: MIC, 25922
# [3] = test system: Gram-positive Staphylococcus aureus (S. aureus) 29213; experiment: Antibacterial activity, microbroth dilution MIC, S. aureus 29213; format: cell-based; conditions: Staphylococcus aureus; S. aureus 29213, microbroth dilution; read-out: MIC, 29213
# [4] = E. coli BAS849, microbroth dilution
Compound,"MIC [1, 4]",MIC [2],MIC [3],MIC [1]
"CCc1c(-c2ccc(N(C)C)c(OC)c2)[nH]c(=O)c(C(=O)O)c1O [Cpd 65, 6-[4-(dimethylamino)-3-methoxyphenyl]-5-ethyl-4-hydroxy-2-oxo-1,2-dihydropyridine-3-carboxylic acid]",3.5 to 12.5 µg/mL,12.5 to 150 µg/mL,12.5 to 150 µg/mL,
"CCc1cc(C(=O)O)c(=O)[nH]c1-c1ccc(N2CCCC2)c(OC)c1 [Cpd 66, 5-ethyl-6-[3-methoxy-4-(pyrrolidin-1-yl)phenyl]-2-oxo-1,2-dihydropyridine-3-carboxylic acid]",3.5 to 12.5 µg/mL,12.5 to 150 µg/mL,12.5 to 150 µg/mL,
"CCc1c(-c2ccc(N3CCCC3)c(OC)c2)[nH]c(=O)c(C(=O)O)c1O [Cpd 67, 5-ethyl-4-hydroxy-6-[3-methoxy-4-(pyrrolidin-1-yl)phenyl]-2-oxo-1,2-dihydropyridine-3-carboxylic acid]",3.5 to 12.5 µg/mL,12.5 to 150 µg/mL,1 to 3.5 µg/mL,
"CCc1c(-c2ccc(N3CCCCC3)c(OC)c2)[nH]c(=O)c(C(=O)O)c1O [Cpd 69, 5-ethyl-4-hydroxy-6-[3-methoxy-4-(piperidin-1-yl)phenyl]-2-oxo-1,2-dihydropyridine-3-carboxylic acid]",3.5 to 12.5 µg/mL,12.5 to 150 µg/mL,3.5 to 12.5 µg/mL,
"CCc1cc(C(=O)O)c(=O)[nH]c1-c1ccc(N2CCCC2)c(C)c1 [Cpd 70, 5-ethyl-6-[3-methyl-4-(pyrrolidin-1-yl)phenyl]-2-oxo-1,2-dihydropyridine-3-carboxylic acid]",< 1 µg/mL,12.5 to 150 µg/mL,12.5 to 150 µg/mL,
"CCc1c(-c2ccc(N3CCCC3)c(C)c2)[nH]c(=O)c(C(=O)O)c1O [Cpd 71, 5-ethyl-4-hydroxy-6-[3-methyl-4-(pyrrolidin-1-yl)phenyl]-2-oxo-1,2-dihydropyridine-3-carboxylic acid]",1 to 3.5 µg/mL,12.5 to 150 µg/mL,3.5 to 12.5 µg/mL,
"CCc1cc(C(=O)O)c(=O)[nH]c1-c1ccc(N2CCCCC2)c(C)c1 [Cpd 72, 5-ethyl-6-[3-methyl-4-(piperidin-1-yl)phenyl]-2-oxo-1,2-dihydropyridine-3-carboxylic acid]",3.5 to 12.5 µg/mL,12.5 to 150 µg/mL,12.5 to 150 µg/mL,
"CCc1c(-c2ccc(N3CCCCC3)c(C)c2)[nH]c(=O)c(C(=O)O)c1O [Cpd 73, 5-ethyl-4-hydroxy-6-[3-methyl-4-(piperidin-1-yl)phenyl]-2-oxo-1,2-dihydropyridine-3-carboxylic acid]",3.5 to 12.5 µg/mL,12.5 to 150 µg/mL,3.5 to 12.5 µg/mL,
"CCc1c(-c2ccc(F)cc2)[nH]c(=O)c(C(=O)O)c1O [Cpd 74, 5-ethyl-6-(4-fluorophenyl)-4-hydroxy-2-oxo-1,2-dihydropyridine-3-carboxylic acid]",3.5 to 12.5 µg/mL,12.5 to 150 µg/mL,12.5 to 150 µg/mL,
"CCc1cc(C(=O)O)c(=O)[nH]c1-c1ccc(Cl)cc1 [Cpd 76, 6-(4-chlorophenyl)-5-ethyl-2-oxo-1,2-dihydropyridine-3-carboxylic acid]",12.5 to 150 µg/mL,12.5 to 150 µg/mL,12.5 to 150 µg/mL,
"CCc1c(-c2ccc(Cl)cc2)[nH]c(=O)c(C(=O)O)c1O [Cpd 77, 6-(4-chlorophenyl)-5-ethyl-4-hydroxy-2-oxo-1,2-dihydropyridine-3-carboxylic acid]",1 to 3.5 µg/mL,12.5 to 150 µg/mL,3.5 to 12.5 µg/mL,
"CCc1cc(C(=O)O)c(=O)[nH]c1-c1ccc(Br)cc1 [Cpd 78, 6-(4-bromophenyl)-5-ethyl-2-oxo-1,2-dihydropyridine-3-carboxylic acid]",3.5 to 12.5 µg/mL,12.5 to 150 µg/mL,12.5 to 150 µg/mL,
"CCc1c(-c2ccc(Br)cc2)[nH]c(=O)c(C(=O)O)c1O [Cpd 79, 6-(4-bromophenyl)-5-ethyl-4-hydroxy-2-oxo-1,2-dihydropyridine-3-carboxylic acid]",< 1 µg/mL,12.5 to 150 µg/mL,3.5 to 12.5 µg/mL,
"CCc1cc(C(=O)O)c(=O)[nH]c1-c1ccc(I)cc1 [Cpd 80, 5-ethyl-6-(4-iodophenyl)-2-oxo-1,2-dihydropyridine-3-carboxylic acid]",3.5 to 12.5 µg/mL,12.5 to 150 µg/mL,12.5 to 150 µg/mL,
"CCc1c(-c2ccc(I)cc2)[nH]c(=O)c(C(=O)O)c1O [Cpd 81, 5-ethyl-4-hydroxy-6-(4-iodophenyl)-2-oxo-1,2-dihydropyridine-3-carboxylic acid]",1 to 3.5 µg/mL,12.5 to 150 µg/mL,3.5 to 12.5 µg/mL,
"CCc1cc(C(=O)O)c(=O)[nH]c1-c1ccc(N2CC3(CCCCC3)CC2=O)cc1 [Cpd 118, 5-ethyl-2-oxo-6-[4-(3-oxo-2-azaspiro[4.5]dec-2-yl)phenyl]-1,2-dihydropyridine-3-carboxylic acid]",3.5 to 12.5 µg/mL,12.5 to 150 µg/mL,12.5 to 150 µg/mL,

Compound,"MIC [1, 4]",MIC [2],MIC [3],MIC [1]
"CCc1cc(C(=O)O)c(=O)[nH]c1-c1ccc(N2C(=O)C3C=CC2C3)cc1 (stereo not drawn) [Cpd 119, 5-ethyl-2-oxo-6-[4-(3-oxo-2-azabicyclo[2.2.1]hept-5-en-2-yl)phenyl]-1,2-dihydropyridine-3-carboxylic acid]",1 to 3.5 µg/mL,12.5 to 150 µg/mL,12.5 to 150 µg/mL,
"CCc1cc(C(=O)O)c(=O)[nH]c1-c1ccc(N2CC(OC3CCCCO3)C2)cc1 (stereo not drawn) [Cpd 120, 5-ethyl-2-oxo-6-{4-[3-(tetrahydro-2H-pyran-2-yloxy)azetidin-1-yl]phenyl}-1,2-dihydropyridine-3-carboxylic acid]",< 1 µg/mL,12.5 to 150 µg/mL,12.5 to 150 µg/mL,
"CCc1cc(C(=O)O)c(=O)[nH]c1-c1ccc(N2CCC[C@@H](O)C2)cc1 [Cpd 122, 5-ethyl-6-{4-[(3R)-3-hydroxypiperidin-1-yl]phenyl}-2-oxo-1,2-dihydropyridine-3-carboxylic acid]",< 1 µg/mL,3.5 to 12.5 µg/mL,12.5 to 150 µg/mL,
"CCc1c(-c2ccc(N3CCC[C@@H](O)C3)cc2)[nH]c(=O)c(C(=O)O)c1O [Cpd 125, 5-ethyl-4-hydroxy-6-{4-[(3R)-3-hydroxypiperidin-1-yl]phenyl}-2-oxo-1,2-dihydropyridine-3-carboxylic acid]",< 1 µg/mL,3.5 to 12.5 µg/mL,12.5 to 150 µg/mL,
"CCc1cc(C(=O)OC)c(=O)[nH]c1-c1ccc(N2CCC(OCc3ccccc3)C2)cc1 (stereo not drawn) [Cpd 127, methyl 6-{4-[3-(benzyloxy)pyrrolidin-1-yl]phenyl}-5-ethyl-2-oxo-1,2-dihydropyridine-3-carboxylate]",12.5 to 150 µg/mL,12.5 to 150 µg/mL,12.5 to 150 µg/mL,
"CCc1cc(C(=O)O)c(=O)[nH]c1-c1ccc(N2C[C@@H](N)[C@H](O)C2)cc1.Cl [Cpd 133, 6-{4-[(3R,4R)-3-amino-4-hydroxypyrrolidin-1-yl]phenyl}-5-ethyl-2-oxo-1,2-dihydropyridine-3-carboxylic acid hydrochloride]",1 to 3.5 µg/mL,12.5 to 150 µg/mL,12.5 to 150 µg/mL,
"CCc1cc(C(=O)O)c(=O)[nH]c1-c1ccc(N2CC3CC2CN3C(=O)OC(C)(C)C)cc1 (stereo not drawn) [Cpd 137, 6-{4-[5-(tert-butoxycarbonyl)-2,5-diazabicyclo[2.2.1]hept-2-yl]phenyl}-5-ethyl-2-oxo-1,2-dihydropyridine-3-carboxylic acid]",,12.5 to 150 µg/mL,12.5 to 150 µg/mL,< 1 µg/mL
"CCc1cc(C(=O)O)c(=O)[nH]c1-c1ccc(N2CCC[C@H]2CN2CCCC2)cc1.O=C(O)C(F)(F)F [Cpd 143, 5-ethyl-2-oxo-6-{4-[(2S)-2-(pyrrolidin-1-ylmethyl)pyrrolidin-1-yl]phenyl}-1,2-dihydropyridine-3-carboxylic acid trifluoroacetate]",,12.5 to 150 µg/mL,12.5 to 150 µg/mL,3.5 to 12.5 µg/mL
"CCc1cc(C(=O)O)c(=O)[nH]c1-c1ccc(N2Cc3ccccc3C2)cc1 [Cpd 162, 6-[4-(1,3-dihydro-2H-isoindol-2-yl)phenyl]-5-ethyl-2-oxo-1,2-dihydropyridine-3-carboxylic acid]",3.5 to 12.5 µg/mL,12.5 to 150 µg/mL,12.5 to 150 µg/mL,
"CCc1cc(C(=O)O)c(=O)[nH]c1-c1ccc(N2CC(N)C2)cc1 [Cpd 170, 6-[4-(3-aminoazetidin-1-yl)phenyl]-5-ethyl-2-oxo-1,2-dihydropyridine-3-carboxylic acid]",12.5 to 150 µg/mL,12.5 to 150 µg/mL,12.5 to 150 µg/mL,
"CCc1cc(C(=O)O)c(=O)[nH]c1-c1ccc(N2CC(NC(=O)OCc3ccccc3)C2)cc1 [Cpd 171, 6-[4-(3-{[(benzyloxy)carbonyl]amino}azetidin-1-yl)phenyl]-5-ethyl-2-oxo-1,2-dihydropyridine-3-carboxylic acid]",3.5 to 12.5 µg/mL,12.5 to 150 µg/mL,12.5 to 150 µg/mL,
"CCc1cc(C(=O)O)c(=O)[nH]c1-c1ccc(N2CCC(N(CC)CC)C2)cc1.O=C(O)C(F)(F)F (stereo not drawn) [Cpd 172, 6-{4-[3-(diethylamino)pyrrolidin-1-yl]phenyl}-5-ethyl-2-oxo-1,2-dihydropyridine-3-carboxylic acid trifluoroacetate]",,3.5 to 12.5 µg/mL,12.5 to 150 µg/mL,< 1 µg/mL
"CCc1cc(C(=O)O)c(=O)[nH]c1-c1ccc(N2C[C@@H]3[C@H](C2)[C@H]3N(Cc2ccccc2)Cc2ccccc2)cc1 [Cpd 176, 6-{4-[(1R,5S,6s)-6-(dibenzylamino)-3-azabicyclo[3.1.0]hex-3-yl]phenyl}-5-ethyl-2-oxo-1,2-dihydropyridine-3-carboxylic acid hydrochloride]",12.5 to 150 µg/mL,12.5 to 150 µg/mL,12.5 to 150 µg/mL,
"CCc1cc(C(=O)O)c(=O)[nH]c1-c1ccc(N2CC3OCCN(Cc4ccccc4)C3C2)cc1.O=C(O)C(F)(F)F (stereo not drawn) [Cpd 180, 6-[4-(4-benzylhexahydropyrrolo[3,4-b][1,4]oxazin-6(2H)-yl)phenyl]-5-ethyl-2-oxo-1,2-dihydropyridine-3-carboxylic acid trifluoroacetate]",,12.5 to 150 µg/mL,12.5 to 150 µg/mL,1 to 3.5 µg/mL
"CCc1cc(C(=O)O)c(=O)[nH]c1-c1ccc(N2CCC(CN(Cc3ccccc3)Cc3ccccc3)C2)cc1.O=C(O)C(F)(F)F (stereo not drawn) [Cpd 181, 6-(4-{3-[(dibenzylamino)methyl]pyrrolidin-1-yl}phenyl)-5-ethyl-2-oxo-1,2-dihydropyridine-3-carboxylic acid trifluoroacetate]",,12.5 to 150 µg/mL,12.5 to 150 µg/mL,3.5 to 12.5 µg/mL
